For one test, the target named is T1, Cdc7/DBF4 (Homo sapiens, UniProt O00311).
T1 construct: purchased Promega
Kind of test: Inhibitory effect against activity of Cdc7/DBF4 (ADP-Glo kinase detection kit). The following applies: 10 μM ATP, 25° C., 60 min. Format: biochemical. The protocol: Cdc7/DBF4 kinase detection kit purchased from Promega; and
(§1) Nivo multi-marker analyzer (PerkinElmer).
An enzyme, a substrate, adenosine triphosphate and an inhibitor were diluted with the kinase buffer in the kit. A test compound was serially 5-fold diluted to an 8th concentration, i.e., from 10 μM to 0.13 nM, with the DMSO concentration being 5%, and the duplicate well experiment was set up. To a microplate were added 1 μL of inhibitors of various concentration gradients, 2 μL of CDCl7/DBF4 kinase (6.25 ng), 2 μL of a mixture of substrate and ATP (10 μM adenosine triphosphate, 0.2 μg/μL substrate), and the final concentration gradient of the compound was diluted from 2 μM to 0.025 nM. The reaction system was left reacting at 25° C. for 60 min. After the reaction was completed, 5 μL of ADP-Glo reagent was added to each well, and the reaction was continued at 25° C. for 40 min. After the reaction was completed, 10 μL of the kinase detection reagent was added to each well. After 30 min of reaction at 25° C., the chemiluminescence was read using the multi-marker analyzer with an integration time of 0.5 s.
The original data were converted to inhibition using the equation (Sample−Min)/(Max−Min)×100%, and the IC50 value was then curve fitted using four parameters (obtained from the “log(inhibitor) vs. response-Variableslope” model in GraphPadPrism). Table 1 provides the enzymatic inhibitory activity of the compounds disclosed herein against Cdc7/DBF4.

In another test the test system is Colo205 cells. As to the kind of experiment: Inhibitory effect against Colo205 cell proliferation (CellTiter-Glo). Format: cell-based. The following applies: incubation 3 days. The protocol: 1640 medium; fetal bovine serum; penicillin/streptomycin antibiotics purchased from Wisent;
CellTiter-Glo (chemiluminescence detection reagent for cell viability) reagent purchased from Promega;
COL0205 cell line purchased from Wuhan Procell Life Science&Technology Co., Ltd; and
as §1
COL0205 cells were plated on to white 96-well plates by adding 80 μL of cell suspension (containing 3000 COL0205 cells) to each well. The cell plate was incubated in a CO2 incubator overnight.
A test compound was serially 3-fold diluted to an 8th concentration, i.e., from 2 mM to 920 nM, and the duplicate well experiment was set up. 78 μL of medium was added to an intermediate plate, 2 μL of the serially diluted compound was transferred to corresponding wells of the intermediate plate, and after mixing, the mixture was transferred to the cell plate at 20 μL per well. The concentration of the compound transferred to the cell plate ranged from 10 μM to 4.57 nM. The cell plate was incubated in a CO2 incubator for 3 days. Another cell plate was provided for reading signal values on the day of compound addition and these values were used as […] in data analysis. The chemiluminescence detection reagent for cell viability was added to this cell plate at 25 μL per well and the luminescence signals were stabilized by incubation at room temperature for 10 min. Readings were taken using the multi-marker analyzer. The chemiluminescence detection reagent for cell viability was added to the cell plate at 25 μL per well and the luminescence signals were stabilized by incubation at room temperature for 10 min. Readings were taken using the multi-marker analyzer.
The original data were converted to inhibition using the equation (Sample−Min)/(Max−Min)×100%, and the IC50 value was then curve fitted using four parameters (obtained from the “log(inhibitor) vs. response-Variableslope” model in GraphPadPrism). Table 2 provides the inhibitory activity of the compounds disclosed herein against COL0205 cell proliferation.

Test [1] deals with human colorectal cancer cell SW620. Kind of test: In vivo pharmacodynamic study in subcutaneous xenograft tumor nude mouse model of SW620. The following applies: 40 mg/kg, BID, p.o. How it is done:
Human colorectal cancer cell SW620 cells of the 7th passage were cultured in an L-15 medium containing 10% fetal bovine serum, 100 U/mL penicillin and 100 μg/mL streptomycin through in vitro monolayer culture in an incubator at 37° C./[…] for 4 passages with conventional medium replacement. At a cell saturation of 80-90%, the cells were digested with pancreatin-EDTA, counted and resuspended in PBS at a density of 5×10^6 cells/100 μL.
Cell inoculation: Each mouse was inoculated on the right cervical dorsum with 0.1 mL of the cell suspension of 5×10^6 SW620 cells in PBS. At an average tumor volume up to about 134 mm^3, the mice were randomly grouped and administrated.
Tumor diameters were measured twice weekly using a vernier caliper. The tumor volume was calculated using the following formula: V=0.5 a×b^2, where a and b represent the long diameter and short diameter of the tumor, respectively.
The anti-tumor therapeutic effect of the compound was evaluated by TGI (%) or relative tumor proliferation rate T/C (%). Relative tumor proliferation rate T/C (%)=TRTV/CRTV×100% (TRTV: RTV of treatment group; CRTV: RTV of negative control group). Relative tumor volumes (RTVs) were calculated from the tumor measurement results using the following formula: RTV=Vt/VO, where VO is the average tumor volume measured at the time of grouping (i.e., DO), Vt is the average tumor volume measured at a certain measurement, and TRTV and CRTV are taken from the data measured on the same day.
TGI (%), reflects the tumor growth inhibition rate. TGI (%)=[(1−(average tumor volume at the end of administration in a treatment group−average tumor volume at the start of administration of the treatment group))/(average tumor volume at the end of treatment of the vehicle control group−average tumor volume at the start of treatment of the vehicle control group)]×100%.
After day 22 of the grouping, mice were euthanized, plasma and tumors were sampled and tumors were weighed and photographed.

pIC50: −log10 of the molar value. Counter-ions that a name gives are not always drawn.

T1 sequence (O00311 whole entry): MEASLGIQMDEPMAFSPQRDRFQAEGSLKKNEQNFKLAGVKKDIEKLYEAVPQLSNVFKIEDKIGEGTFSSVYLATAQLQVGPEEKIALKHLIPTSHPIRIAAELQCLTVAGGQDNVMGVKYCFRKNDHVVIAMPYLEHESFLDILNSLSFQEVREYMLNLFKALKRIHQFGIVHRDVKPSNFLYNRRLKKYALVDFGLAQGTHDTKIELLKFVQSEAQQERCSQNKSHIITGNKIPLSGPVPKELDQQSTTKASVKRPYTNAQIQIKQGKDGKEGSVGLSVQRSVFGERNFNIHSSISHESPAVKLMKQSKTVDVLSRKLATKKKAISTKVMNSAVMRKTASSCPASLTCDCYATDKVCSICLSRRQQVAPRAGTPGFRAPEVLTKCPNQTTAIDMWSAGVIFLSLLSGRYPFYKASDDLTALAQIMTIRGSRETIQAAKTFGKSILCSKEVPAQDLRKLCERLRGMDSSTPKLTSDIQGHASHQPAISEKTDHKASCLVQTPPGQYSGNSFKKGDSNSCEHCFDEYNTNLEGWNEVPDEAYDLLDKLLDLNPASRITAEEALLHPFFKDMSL
T1 sequence (Q9UBU7 whole entry partner): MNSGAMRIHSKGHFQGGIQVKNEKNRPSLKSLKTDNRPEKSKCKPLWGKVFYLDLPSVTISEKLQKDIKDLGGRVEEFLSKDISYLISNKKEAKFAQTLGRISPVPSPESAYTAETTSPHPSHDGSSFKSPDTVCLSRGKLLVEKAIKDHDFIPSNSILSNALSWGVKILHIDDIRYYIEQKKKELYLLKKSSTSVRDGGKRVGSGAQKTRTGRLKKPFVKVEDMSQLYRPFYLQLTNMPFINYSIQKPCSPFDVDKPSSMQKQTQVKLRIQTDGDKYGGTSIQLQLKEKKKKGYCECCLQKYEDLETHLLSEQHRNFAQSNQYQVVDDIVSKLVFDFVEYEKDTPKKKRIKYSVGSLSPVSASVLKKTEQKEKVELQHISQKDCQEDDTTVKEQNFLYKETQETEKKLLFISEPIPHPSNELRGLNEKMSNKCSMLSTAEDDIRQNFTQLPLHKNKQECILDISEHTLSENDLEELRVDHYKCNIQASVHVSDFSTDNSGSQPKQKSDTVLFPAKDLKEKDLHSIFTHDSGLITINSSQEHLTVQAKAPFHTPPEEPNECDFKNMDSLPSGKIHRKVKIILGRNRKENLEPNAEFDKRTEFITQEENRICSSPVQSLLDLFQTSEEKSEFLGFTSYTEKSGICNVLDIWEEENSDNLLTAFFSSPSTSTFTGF

Take `CN1CCCCC1c1nc2c3c(sc2c(=O)[nH]1)-c1c[nH]nc1CCC3` (single isomer, unassigned) [Compound 7-2 formate]: the pIC50 against Cdc7/DBF4 was 8.57.
The same measure, in the same setting: with `CN1CCCC1(C)c1nc2c3c(sc2c(=O)[nH]1)-c1c[nH]nc1CCC3` (single isomer, unassigned) [Compound 5-2 hydrochloride] the figure was 8.63; with `O=c1[nH]c(C2C3CCN2CC3)nc2c3c(sc12)-c1c[nH]nc1CCC3` (single isomer, unassigned) [Compound 14-2 hydrochloride], 8.84.
For `O=c1[nH]c([C@H]2CC3CCN2CC3)nc2c3c(sc12)-c1c[nH]nc1CCC3` (single isomer, unassigned) [Compound 1-2 hydrochloride], the negative logarithm of the IC50 (pIC50) was 8.89 against Cdc7/DBF4 and 7.27 in the test on Colo205 cells.
As for `CC1(c2nc3c4c(sc3c(=O)[nH]2)-c2c[nH]nc2CCC4)CCCN1` (single isomer, unassigned) [Compound 4-1 hydrochloride], the negative logarithm of the IC50 (pIC50) against Cdc7/DBF4 was 8.34.
Still for that read-out and setting: with `CN1CCC(c2nc3c4c(sc3c(=O)[nH]2)-c2c[nH]nc2CCC4)CC1` [Compound 11 hydrochloride] the figure was 8.31; with `CC1(c2nc3c4c(sc3c(=O)[nH]2)-c2c[nH]nc2CCC4)CCNCC1` [Compound 12 hydrochloride], 8.86.
Regarding `O=c1[nH]c(C2CCCNC2)nc2c3c(sc12)-c1c[nH]nc1CCC3` (single isomer, unassigned) [Compound 8-2 hydrochloride], the pIC50 against Cdc7/DBF4 was 8.93.
The same measure, in the same setting: then `O=c1[nH]c(C2CCCNC2)nc2c3c(sc12)-c1c[nH]nc1CCC3` (single isomer, unassigned) [Compound 8-1 hydrochloride], with 8.37; and `CN1CCCC1c1nc2c3c(sc2c(=O)[nH]1)-c1c[nH]nc1CCC3` (single isomer, unassigned) [Compound 3-2 hydrochloride], with 9.38; and `O=c1[nH]c(C2CCCN2)nc2c3c(sc12)-c1c[nH]nc1CCC3` (single isomer, unassigned) [Compound 2-1 hydrochloride], with 8.43.
Regarding `Cc1n[nH]cc1-c1cc2nc([C@@H]3CC4CCN3CC4)[nH]c(=O)c2s1` [TAK-931, reference compound], the “Tumor volume (Day 1)” value in test [1] (Day 1) is given as 134 ± 13 mm^3. In test [1] (Day 21), the “RTV (Day 21)” value is given as 1.36, the “T/C (%) (Day 21)” value was determined as 16%, the “TGI (%) (Day 21)” value came out at 96% and the “Tumor volume (Day 21)” value is given as 176 ± 27 mm^3.
As for `CN1CCCC1c1nc2c3c(sc2c(=O)[nH]1)-c1c[nH]nc1CCC3` (single isomer, unassigned) [Compound 3-1 hydrochloride], the pIC50 against Cdc7/DBF4 was 8.92.
The compound `O=c1[nH]c(C2CCCN2)nc2c3c(sc12)-c1c[nH]nc1CCC3` (single isomer, unassigned) [Compound 2-2 hydrochloride] had a pIC50 against Cdc7/DBF4 of 8.82.
The same measure, in the same setting: then `CN1CCCC(c2nc3c4c(sc3c(=O)[nH]2)-c2c[nH]nc2CCC4)C1` (single isomer, unassigned) [Compound 9-1 hydrochloride], with 8.31; and `CC1(c2nc3c4c(sc3c(=O)[nH]2)-c2c[nH]nc2CCC4)CCCN1` (single isomer, unassigned) [Compound 4-2 hydrochloride], with 8.17; and `CC(C)N1CCCC1c1nc2c3c(sc2c(=O)[nH]1)-c1c[nH]nc1CCC3` (single isomer, unassigned) [Compound 6-2 hydrochloride], with 9.00.
For the compound `O=c1[nH]c(C2C3CCN2CC3)nc2c3c(sc12)-c1c[nH]nc1CCC3` (single isomer, unassigned) [Compound 14-1 hydrochloride], the pIC50 against Cdc7/DBF4 was 8.92; in the test with Colo205 cells (Homo sapiens, COLO 205, 72 h), 7.30.
`CC(C)N1CCCC1c1nc2c3c(sc2c(=O)[nH]1)-c1c[nH]nc1CCC3` (single isomer, unassigned) [Compound 6-1 hydrochloride] had a pIC50 at Cdc7/DBF4 of 8.77.
On the same count and under the same terms, then `CN1CCCCC1c1nc2c3c(sc2c(=O)[nH]1)-c1c[nH]nc1CCC3` (single isomer, unassigned) [Compound 7-1 formate], with 8.51.
Still for that read-out and setting: then `O=c1[nH]c(C2CCNCC2)nc2c3c(sc12)-c1c[nH]nc1CCC3` [Compound 10 hydrochloride], with 8.77; and `CN1CCCC1(C)c1nc2c3c(sc2c(=O)[nH]1)-c1c[nH]nc1CCC3` (single isomer, unassigned) [Compound 5-1 hydrochloride], with 8.69.
Still for that read-out and setting: then `CN1CCC(C)(c2nc3c4c(sc3c(=O)[nH]2)-c2c[nH]nc2CCC4)CC1` [Compound 13 hydrochloride], with 8.25; and `CN1CCCC(c2nc3c4c(sc3c(=O)[nH]2)-c2c[nH]nc2CCC4)C1` (single isomer, unassigned) [Compound 9-2 hydrochloride], with 8.96.

These data come from patent US20220235068A1, “TETRACYCLIC COMPOUNDS AS CDC7 INHIBITORS” (Chia Tai Tianqing Pharmaceutical Group Co., Ltd., priority 2019, published 2022).
